Laboratory results published in PMC9030254, “Target Hopping from Protein Kinases to PXR: Identification of Small-Molecule Protein Kinase Inhibitors as Selective Modulators of Pregnane X Receptor from TüKIC Library” (Cells, 2022).

Legend:
Experiment in all cases: Kinase profiling
Assay type in all cases: biochemical
IGF1R = molecular target: T1, IGF1R (Homo sapiens, UniProt P08069)
T1 construct: purchased ProQinase (Freiburg, Germany)
Method: (§1) The analysis was performed by ProQinase (Freiburg, Germany).

DYRK1A = molecular target: T2, DYRK1A (Homo sapiens, UniProt Q13627)
T2 construct: purchased ProQinase (Freiburg, Germany)
Method: as §1

BRK = molecular target: T3, BRK (Homo sapiens, UniProt Q13882)
T3 construct: purchased ProQinase (Freiburg, Germany)
Method: as §1

PBK = molecular target: T4, PBK (Homo sapiens, UniProt Q96KB5)
T4 construct: purchased ProQinase (Freiburg, Germany)
T4 sequence (Q96KB5 1-322): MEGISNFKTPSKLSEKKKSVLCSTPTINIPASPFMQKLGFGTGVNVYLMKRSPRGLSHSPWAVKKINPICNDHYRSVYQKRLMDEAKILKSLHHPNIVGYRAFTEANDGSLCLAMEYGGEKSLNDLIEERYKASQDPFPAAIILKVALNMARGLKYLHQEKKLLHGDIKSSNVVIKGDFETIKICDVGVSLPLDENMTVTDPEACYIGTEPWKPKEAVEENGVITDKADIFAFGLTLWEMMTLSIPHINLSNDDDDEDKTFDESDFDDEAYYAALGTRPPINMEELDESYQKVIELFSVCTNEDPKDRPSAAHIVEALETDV
Method: as §1

SGK3 = molecular target: T5, SGK3 (Homo sapiens, UniProt Q96BR1)
T5 construct: purchased ProQinase (Freiburg, Germany)
T5 sequence (Q96BR1 1-496): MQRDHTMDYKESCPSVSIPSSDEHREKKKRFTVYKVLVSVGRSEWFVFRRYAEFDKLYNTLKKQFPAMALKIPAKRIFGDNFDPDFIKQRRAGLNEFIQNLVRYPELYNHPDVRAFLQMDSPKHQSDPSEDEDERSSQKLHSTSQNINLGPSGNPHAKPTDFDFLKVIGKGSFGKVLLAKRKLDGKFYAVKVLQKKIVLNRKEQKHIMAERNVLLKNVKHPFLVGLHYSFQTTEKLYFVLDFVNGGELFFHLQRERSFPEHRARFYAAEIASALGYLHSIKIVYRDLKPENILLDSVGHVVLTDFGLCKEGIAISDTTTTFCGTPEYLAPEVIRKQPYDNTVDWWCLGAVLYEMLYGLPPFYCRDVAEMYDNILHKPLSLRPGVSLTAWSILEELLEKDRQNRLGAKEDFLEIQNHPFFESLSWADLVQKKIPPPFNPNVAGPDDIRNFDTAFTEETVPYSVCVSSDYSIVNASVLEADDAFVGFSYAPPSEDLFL
Method: as §1

CAMK1D = molecular target: T6, CAMK1D (Homo sapiens, UniProt Q8IU85)
T6 construct: purchased ProQinase (Freiburg, Germany)
Method: as §1

STK23 = molecular target: T7, STK23 (Homo sapiens, UniProt Q9UPE1)
T7 construct: purchased ProQinase (Freiburg, Germany)
Method: as §1

FGFR1 = molecular target: T8, FGFR1 (Homo sapiens, UniProt P11362)
T8 construct: purchased ProQinase (Freiburg, Germany)
Method: as §1

TIE2 = molecular target: T9, TIE2 (Homo sapiens, UniProt Q02763)
T9 construct: purchased ProQinase (Freiburg, Germany)
Method: as §1

WNK2 = molecular target: T10, WNK2 (Homo sapiens, UniProt Q9Y3S1)
T10 construct: purchased ProQinase (Freiburg, Germany)
Method: as §1

PKCdelta = molecular target: T11, PKCdelta (Homo sapiens, UniProt Q05655)
T11 construct: purchased ProQinase (Freiburg, Germany)
Method: as §1

ALK = molecular target: T12, ALK (Homo sapiens, UniProt Q9UM73)
T12 construct: purchased ProQinase (Freiburg, Germany)
Method: as §1

NEK6 = molecular target: T13, NEK6 (Homo sapiens, UniProt Q9HC98)
T13 construct: purchased ProQinase (Freiburg, Germany)
Method: as §1

BRAF = molecular target: T14, BRAF (Homo sapiens, UniProt P15056)
T14 construct: purchased ProQinase (Freiburg, Germany)
Method: as §1

TYK2 = molecular target: T15, TYK2 (Homo sapiens, UniProt P29597)
T15 construct: purchased ProQinase (Freiburg, Germany)
Method: as §1

PAK3 = molecular target: T16, PAK3 (Homo sapiens, UniProt O75914)
T16 construct: purchased ProQinase (Freiburg, Germany)
Method: as §1

CDK9/CycT1 = molecular target: T17, CDK9/CycT1 (Homo sapiens, UniProt P50750)
T17 construct: purchased ProQinase (Freiburg, Germany)
Method: as §1

PKCtheta = molecular target: T18, PKCtheta (Homo sapiens, UniProt Q04759)
T18 construct: purchased ProQinase (Freiburg, Germany)
Method: as §1

EPHA5 = molecular target: T19, EPHA5 (Homo sapiens, UniProt P54756)
T19 construct: purchased ProQinase (Freiburg, Germany)
Method: as §1

JAK2 = molecular target: T20, JAK2 (Homo sapiens, UniProt O60674)
T20 construct: purchased ProQinase (Freiburg, Germany)
Method: as §1

EGFR = molecular target: T21, EGFR (Homo sapiens, UniProt P00533)
T21 construct: purchased ProQinase (Freiburg, Germany)
Method: as §1

PYK2 = molecular target: T22, PYK2 (Homo sapiens, UniProt Q14289)
T22 construct: purchased ProQinase (Freiburg, Germany)
Method: as §1

HCK = molecular target: T23, HCK (Homo sapiens, UniProt P08631)
T23 construct: purchased ProQinase (Freiburg, Germany)
Method: as §1

CDK5/p25NCK = molecular target: T24, CDK5/p25NCK (Homo sapiens, UniProt Q00535)
T24 construct: purchased ProQinase (Freiburg, Germany)
Method: as §1

GRK5 = molecular target: T25, GRK5 (Homo sapiens, UniProt P34947)
T25 construct: purchased ProQinase (Freiburg, Germany)
Method: as §1

AKT3 = molecular target: T26, AKT3 (Homo sapiens, UniProt Q9Y243)
T26 construct: purchased ProQinase (Freiburg, Germany)
Method: as §1

T16 sequence (O75914 whole entry): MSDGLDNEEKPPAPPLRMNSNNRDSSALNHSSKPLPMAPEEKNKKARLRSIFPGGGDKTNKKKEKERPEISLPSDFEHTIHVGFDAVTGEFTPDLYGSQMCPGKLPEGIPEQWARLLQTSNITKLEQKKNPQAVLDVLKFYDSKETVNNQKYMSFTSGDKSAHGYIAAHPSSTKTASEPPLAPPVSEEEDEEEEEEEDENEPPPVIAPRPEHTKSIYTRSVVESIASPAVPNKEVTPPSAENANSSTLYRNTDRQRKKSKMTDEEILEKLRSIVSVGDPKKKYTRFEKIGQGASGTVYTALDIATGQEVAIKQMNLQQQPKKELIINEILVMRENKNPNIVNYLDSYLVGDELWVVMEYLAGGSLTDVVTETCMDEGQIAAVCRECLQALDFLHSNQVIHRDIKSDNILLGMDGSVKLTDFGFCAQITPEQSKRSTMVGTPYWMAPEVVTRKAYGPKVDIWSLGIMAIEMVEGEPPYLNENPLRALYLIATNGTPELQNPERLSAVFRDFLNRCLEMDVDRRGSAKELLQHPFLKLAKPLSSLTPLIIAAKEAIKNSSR
T23 sequence (P08631 whole entry): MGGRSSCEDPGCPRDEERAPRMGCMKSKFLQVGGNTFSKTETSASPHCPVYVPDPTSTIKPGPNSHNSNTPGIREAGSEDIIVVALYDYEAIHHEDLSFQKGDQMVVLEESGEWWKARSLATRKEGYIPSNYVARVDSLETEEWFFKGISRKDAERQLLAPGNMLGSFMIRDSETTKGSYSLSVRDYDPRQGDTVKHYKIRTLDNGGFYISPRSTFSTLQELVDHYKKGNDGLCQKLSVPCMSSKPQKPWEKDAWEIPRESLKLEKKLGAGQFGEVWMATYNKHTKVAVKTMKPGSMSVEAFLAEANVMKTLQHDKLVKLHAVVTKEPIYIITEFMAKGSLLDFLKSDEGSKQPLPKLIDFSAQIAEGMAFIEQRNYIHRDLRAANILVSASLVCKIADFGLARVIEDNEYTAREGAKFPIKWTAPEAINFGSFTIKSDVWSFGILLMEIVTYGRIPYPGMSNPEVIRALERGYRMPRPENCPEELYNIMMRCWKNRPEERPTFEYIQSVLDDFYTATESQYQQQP
T1 sequence (P08069 31-1367): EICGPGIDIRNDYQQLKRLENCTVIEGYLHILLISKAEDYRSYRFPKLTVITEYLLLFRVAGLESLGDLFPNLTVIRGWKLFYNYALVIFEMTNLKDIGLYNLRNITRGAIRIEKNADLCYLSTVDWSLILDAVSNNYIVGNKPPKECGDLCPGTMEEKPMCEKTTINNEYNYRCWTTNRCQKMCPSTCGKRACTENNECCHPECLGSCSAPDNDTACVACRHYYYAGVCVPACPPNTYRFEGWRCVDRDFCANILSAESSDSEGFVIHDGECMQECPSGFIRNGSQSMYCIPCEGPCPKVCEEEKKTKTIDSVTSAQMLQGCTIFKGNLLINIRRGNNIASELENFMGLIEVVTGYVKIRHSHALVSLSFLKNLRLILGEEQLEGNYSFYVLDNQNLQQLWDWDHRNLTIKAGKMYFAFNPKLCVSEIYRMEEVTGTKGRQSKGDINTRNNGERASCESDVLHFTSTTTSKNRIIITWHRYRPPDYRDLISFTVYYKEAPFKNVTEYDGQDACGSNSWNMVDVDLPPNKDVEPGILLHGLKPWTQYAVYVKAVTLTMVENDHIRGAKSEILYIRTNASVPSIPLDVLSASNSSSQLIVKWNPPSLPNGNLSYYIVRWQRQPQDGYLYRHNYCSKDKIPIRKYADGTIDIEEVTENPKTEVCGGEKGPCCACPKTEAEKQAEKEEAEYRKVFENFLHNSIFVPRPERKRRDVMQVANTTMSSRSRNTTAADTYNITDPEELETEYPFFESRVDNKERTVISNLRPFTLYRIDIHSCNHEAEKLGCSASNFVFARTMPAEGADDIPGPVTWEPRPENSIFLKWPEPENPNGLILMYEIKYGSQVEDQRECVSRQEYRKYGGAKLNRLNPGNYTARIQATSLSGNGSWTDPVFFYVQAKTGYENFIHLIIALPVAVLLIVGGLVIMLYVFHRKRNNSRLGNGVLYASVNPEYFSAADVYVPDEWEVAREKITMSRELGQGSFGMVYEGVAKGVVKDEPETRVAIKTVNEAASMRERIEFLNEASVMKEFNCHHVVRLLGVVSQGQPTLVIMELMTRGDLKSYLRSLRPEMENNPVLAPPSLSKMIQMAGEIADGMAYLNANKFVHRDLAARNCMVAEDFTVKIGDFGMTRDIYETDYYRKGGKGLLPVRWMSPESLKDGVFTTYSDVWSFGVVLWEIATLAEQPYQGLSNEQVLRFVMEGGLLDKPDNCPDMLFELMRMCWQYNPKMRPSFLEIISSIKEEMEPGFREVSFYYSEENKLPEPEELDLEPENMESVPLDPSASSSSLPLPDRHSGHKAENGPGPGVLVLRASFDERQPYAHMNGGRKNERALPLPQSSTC
T18 sequence (Q04759 whole entry): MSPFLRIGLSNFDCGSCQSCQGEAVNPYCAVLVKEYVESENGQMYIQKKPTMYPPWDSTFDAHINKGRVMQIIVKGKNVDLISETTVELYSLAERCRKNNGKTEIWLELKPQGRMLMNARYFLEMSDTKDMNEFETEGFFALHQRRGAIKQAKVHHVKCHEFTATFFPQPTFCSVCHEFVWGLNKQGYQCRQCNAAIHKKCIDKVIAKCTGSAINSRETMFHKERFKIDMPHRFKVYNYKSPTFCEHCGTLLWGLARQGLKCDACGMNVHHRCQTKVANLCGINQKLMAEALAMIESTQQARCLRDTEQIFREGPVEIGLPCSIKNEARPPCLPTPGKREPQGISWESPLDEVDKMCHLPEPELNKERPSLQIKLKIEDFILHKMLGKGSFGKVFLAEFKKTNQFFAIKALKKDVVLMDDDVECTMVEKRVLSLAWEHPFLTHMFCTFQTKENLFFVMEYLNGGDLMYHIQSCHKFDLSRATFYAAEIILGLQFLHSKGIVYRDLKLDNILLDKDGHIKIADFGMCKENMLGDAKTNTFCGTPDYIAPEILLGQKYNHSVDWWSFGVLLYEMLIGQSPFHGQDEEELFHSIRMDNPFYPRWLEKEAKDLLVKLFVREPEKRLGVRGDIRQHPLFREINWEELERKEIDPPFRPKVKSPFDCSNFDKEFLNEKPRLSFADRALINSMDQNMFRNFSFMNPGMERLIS
T8 sequence (P11362 22-822): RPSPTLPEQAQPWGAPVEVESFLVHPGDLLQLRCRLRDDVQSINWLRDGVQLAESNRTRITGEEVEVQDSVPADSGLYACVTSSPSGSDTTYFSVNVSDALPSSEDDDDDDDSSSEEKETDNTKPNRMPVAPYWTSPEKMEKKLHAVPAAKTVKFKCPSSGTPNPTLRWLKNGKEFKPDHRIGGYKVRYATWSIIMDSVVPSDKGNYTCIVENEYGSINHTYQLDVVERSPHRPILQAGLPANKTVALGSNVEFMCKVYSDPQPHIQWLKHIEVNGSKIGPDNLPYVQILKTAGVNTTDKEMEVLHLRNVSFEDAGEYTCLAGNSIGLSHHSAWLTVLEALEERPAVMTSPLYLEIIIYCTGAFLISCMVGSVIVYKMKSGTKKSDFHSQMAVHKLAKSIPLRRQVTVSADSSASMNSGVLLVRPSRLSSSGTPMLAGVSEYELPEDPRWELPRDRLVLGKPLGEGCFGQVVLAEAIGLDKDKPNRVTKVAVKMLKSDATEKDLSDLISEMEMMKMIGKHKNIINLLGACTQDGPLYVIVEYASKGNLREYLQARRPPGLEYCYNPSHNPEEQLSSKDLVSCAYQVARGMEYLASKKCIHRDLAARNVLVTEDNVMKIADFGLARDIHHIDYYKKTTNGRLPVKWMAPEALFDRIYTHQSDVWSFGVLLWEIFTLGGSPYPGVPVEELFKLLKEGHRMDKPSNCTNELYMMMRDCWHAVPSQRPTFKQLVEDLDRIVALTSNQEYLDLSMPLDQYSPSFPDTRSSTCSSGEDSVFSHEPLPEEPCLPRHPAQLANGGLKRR
T20 sequence (O60674 whole entry): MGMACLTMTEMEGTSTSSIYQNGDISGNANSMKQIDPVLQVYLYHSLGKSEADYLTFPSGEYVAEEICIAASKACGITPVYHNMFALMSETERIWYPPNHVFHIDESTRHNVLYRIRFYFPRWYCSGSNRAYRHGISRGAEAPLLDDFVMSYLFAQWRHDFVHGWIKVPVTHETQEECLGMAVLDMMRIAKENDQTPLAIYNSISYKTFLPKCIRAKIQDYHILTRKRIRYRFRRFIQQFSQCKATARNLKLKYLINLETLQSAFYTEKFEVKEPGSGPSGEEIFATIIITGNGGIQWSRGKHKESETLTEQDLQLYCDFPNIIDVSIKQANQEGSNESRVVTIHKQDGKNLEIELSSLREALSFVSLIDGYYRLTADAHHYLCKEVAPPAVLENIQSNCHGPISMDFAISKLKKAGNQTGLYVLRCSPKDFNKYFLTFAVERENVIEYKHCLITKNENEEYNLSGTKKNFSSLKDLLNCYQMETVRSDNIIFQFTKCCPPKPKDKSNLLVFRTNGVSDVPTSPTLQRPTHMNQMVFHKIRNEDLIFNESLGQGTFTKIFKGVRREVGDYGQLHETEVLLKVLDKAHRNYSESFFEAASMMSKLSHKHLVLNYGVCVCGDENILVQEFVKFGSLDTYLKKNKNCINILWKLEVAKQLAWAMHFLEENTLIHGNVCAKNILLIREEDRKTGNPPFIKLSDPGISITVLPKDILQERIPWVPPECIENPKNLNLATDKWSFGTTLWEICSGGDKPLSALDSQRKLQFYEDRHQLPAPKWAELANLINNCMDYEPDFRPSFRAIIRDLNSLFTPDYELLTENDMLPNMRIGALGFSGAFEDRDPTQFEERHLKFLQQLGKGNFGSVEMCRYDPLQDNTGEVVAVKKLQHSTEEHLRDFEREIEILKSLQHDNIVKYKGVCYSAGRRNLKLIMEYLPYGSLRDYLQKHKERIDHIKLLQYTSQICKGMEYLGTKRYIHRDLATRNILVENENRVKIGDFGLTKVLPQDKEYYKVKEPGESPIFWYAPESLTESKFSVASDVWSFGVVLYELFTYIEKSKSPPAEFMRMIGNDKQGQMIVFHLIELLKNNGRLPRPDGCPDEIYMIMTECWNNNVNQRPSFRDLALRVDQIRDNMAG

## O=C(Cc1ccccc1)Nc1ccc(F)c(Nc2ccc3c(c2)CCCCC3=O)c1 [Compound 100]
IGF1R; 1.0E-05 M
  Residual activity: 101 % of control
IGF1R; 1.0E-06 M
  Residual activity: 97 % of control
DYRK1A; 1.0E-05 M
  Residual activity: 98 % of control
DYRK1A; 1.0E-06 M
  Residual activity: 92 % of control
BRK; 1.0E-05 M
  Residual activity: 106 % of control
BRK; 1.0E-06 M
  Residual activity: 105 % of control
PBK; 1.0E-05 M
  Residual activity: 93 % of control
PBK; 1.0E-06 M
  Residual activity: 128 % of control
SGK3; 1.0E-05 M
  Residual activity: 98 % of control
SGK3; 1.0E-06 M
  Residual activity: 103 % of control
CAMK1D; 1.0E-05 M
  Residual activity: 88 % of control
CAMK1D; 1.0E-06 M
  Residual activity: 85 % of control
STK23; 1.0E-05 M
  Residual activity: 79 % of control
STK23; 1.0E-06 M
  Residual activity: 89 % of control
FGFR1; 1.0E-05 M
  Residual activity: 78 % of control
FGFR1; 1.0E-06 M
  Residual activity: 93 % of control
TIE2; 1.0E-05 M
  Residual activity: 66 % of control
TIE2; 1.0E-06 M
  Residual activity: 96 % of control
WNK2; 1.0E-05 M
  Residual activity: 100 % of control
WNK2; 1.0E-06 M
  Residual activity: 95 % of control
PKCdelta; 1.0E-05 M
  Residual activity: 82 % of control
PKCdelta; 1.0E-06 M
  Residual activity: 98 % of control
ALK; 1.0E-05 M
  Residual activity: 72 % of control
ALK; 1.0E-06 M
  Residual activity: 86 % of control
NEK6; 1.0E-05 M
  Residual activity: 87 % of control
NEK6; 1.0E-06 M
  Residual activity: 95 % of control
BRAF
  inhibition at 10 µM: ≥ 50%
BRAF; 1.0E-05 M
  Residual activity: 25 % of control
BRAF; 1.0E-06 M
  Residual activity: 58 % of control
TYK2; 1.0E-05 M
  Residual activity: 83 % of control
TYK2; 1.0E-06 M
  Residual activity: 95 % of control
PAK3; 1.0E-05 M
  Residual activity: 74 % of control
PAK3; 1.0E-06 M
  Residual activity: 88 % of control
CDK9/CycT1; 1.0E-05 M
  Residual activity: 89 % of control
CDK9/CycT1; 1.0E-06 M
  Residual activity: 95 % of control
PKCtheta; 1.0E-05 M
  Residual activity: 82 % of control
PKCtheta; 1.0E-06 M
  Residual activity: 104 % of control
EPHA5; 1.0E-05 M
  Residual activity: 67 % of control
EPHA5; 1.0E-06 M
  Residual activity: 96 % of control
JAK2; 1.0E-05 M
  Residual activity: 85 % of control
JAK2; 1.0E-06 M
  Residual activity: 94 % of control
EGFR; 1.0E-05 M
  Residual activity: 99 % of control
EGFR; 1.0E-06 M
  Residual activity: 100 % of control
PYK2; 1.0E-05 M
  Residual activity: 79 % of control
PYK2; 1.0E-06 M
  Residual activity: 108 % of control
HCK; 1.0E-05 M
  Residual activity: 95 % of control
HCK; 1.0E-06 M
  Residual activity: 107 % of control
CDK5/p25NCK; 1.0E-05 M
  Residual activity: 90 % of control
CDK5/p25NCK; 1.0E-06 M
  Residual activity: 99 % of control
GRK5; 1.0E-05 M
  Residual activity: 106 % of control
GRK5; 1.0E-06 M
  Residual activity: 104 % of control
AKT3; 1.0E-05 M
  Residual activity: 100 % of control
AKT3; 1.0E-06 M
  Residual activity: 114 % of control

## O=C(Nc1ccc(F)c(Nc2ccc3c(c2)CCCCC3=O)c1)c1cccc(F)c1 [Compound 109]
IGF1R; 1.0E-05 M
  Residual activity: 80 % of control
IGF1R; 1.0E-06 M
  Residual activity: 104 % of control
DYRK1A; 1.0E-05 M
  Residual activity: 92 % of control
DYRK1A; 1.0E-06 M
  Residual activity: 92 % of control
BRK; 1.0E-05 M
  Residual activity: 84 % of control
BRK; 1.0E-06 M
  Residual activity: 105 % of control
PBK; 1.0E-05 M
  Residual activity: 106 % of control
PBK; 1.0E-06 M
  Residual activity: 95 % of control
SGK3; 1.0E-05 M
  Residual activity: 97 % of control
SGK3; 1.0E-06 M
  Residual activity: 96 % of control
CAMK1D; 1.0E-05 M
  Residual activity: 89 % of control
CAMK1D; 1.0E-06 M
  Residual activity: 93 % of control
STK23; 1.0E-05 M
  Residual activity: 76 % of control
STK23; 1.0E-06 M
  Residual activity: 78 % of control
FGFR1; 1.0E-05 M
  Residual activity: 79 % of control
FGFR1; 1.0E-06 M
  Residual activity: 93 % of control
TIE2; 1.0E-05 M
  Residual activity: 78 % of control
TIE2; 1.0E-06 M
  Residual activity: 87 % of control
WNK2; 1.0E-05 M
  Residual activity: 96 % of control
WNK2; 1.0E-06 M
  Residual activity: 90 % of control
PKCdelta; 1.0E-05 M
  Residual activity: 66 % of control
PKCdelta; 1.0E-06 M
  Residual activity: 107 % of control
ALK; 1.0E-05 M
  Residual activity: 92 % of control
ALK; 1.0E-06 M
  Residual activity: 95 % of control
NEK6; 1.0E-05 M
  Residual activity: 92 % of control
NEK6; 1.0E-06 M
  Residual activity: 96 % of control
BRAF
  inhibition at 10 µM: ≥ 50%
BRAF; 1.0E-05 M
  Residual activity: 39 % of control
BRAF; 1.0E-06 M
  Residual activity: 67 % of control
TYK2; 1.0E-05 M
  Residual activity: 93 % of control
TYK2; 1.0E-06 M
  Residual activity: 102 % of control
PAK3; 1.0E-05 M
  Residual activity: 79 % of control
PAK3; 1.0E-06 M
  Residual activity: 92 % of control
CDK9/CycT1; 1.0E-05 M
  Residual activity: 93 % of control
CDK9/CycT1; 1.0E-06 M
  Residual activity: 92 % of control
PKCtheta; 1.0E-05 M
  Residual activity: 84 % of control
PKCtheta; 1.0E-06 M
  Residual activity: 106 % of control
EPHA5; 1.0E-05 M
  Residual activity: 60 % of control
EPHA5; 1.0E-06 M
  Residual activity: 93 % of control
JAK2; 1.0E-05 M
  Residual activity: 89 % of control
JAK2; 1.0E-06 M
  Residual activity: 90 % of control
EGFR; 1.0E-05 M
  Residual activity: 93 % of control
EGFR; 1.0E-06 M
  Residual activity: 105 % of control
PYK2; 1.0E-05 M
  Residual activity: 80 % of control
PYK2; 1.0E-06 M
  Residual activity: 87 % of control
HCK; 1.0E-05 M
  Residual activity: 76 % of control
HCK; 1.0E-06 M
  Residual activity: 99 % of control
CDK5/p25NCK; 1.0E-05 M
  Residual activity: 95 % of control
CDK5/p25NCK; 1.0E-06 M
  Residual activity: 95 % of control
GRK5; 1.0E-05 M
  Residual activity: 103 % of control
GRK5; 1.0E-06 M
  Residual activity: 102 % of control
AKT3; 1.0E-05 M
  Residual activity: 102 % of control
AKT3; 1.0E-06 M
  Residual activity: 95 % of control
